This is an account of results in publication PMC6121455, “Synthesis and Spectrum of Biological Activities of Novel N-arylcinnamamides” (International Journal of Molecular Sciences, 2018).

Each structure is given as a SMILES string. Converted amounts (≈) assume the structure as drawn. “And” between values parts separate entries of the source, which are not always exact repeats. Identical values can stand only once. “Also recorded” adds a separate entry of the source. Like-named read-outs stand apart in the source and are kept apart here.

For one data set, the system named is M. tuberculosis H37Ra. The following applies: cited from earlier work.
Data set [1] deals with Bipolaris sorokiniana conidium germination. Nature of the data set: Inhibition of Bipolaris sorokiniana conidium germination. In kind it is cell-based. The note with it: 48 h, read-out: Inhibition (%) Compared to Negative Control, conidium germination.
In data set [2] the test system is Fusarium avenaceum (Fr.) Sacc. IMI 319947. The data set can be described thus: In vitro antifungal activity, mycelial growth (MIC). In kind it is cell-based. The following applies: F. avenaceum mycelial growth.
For data set [3], the system named is Bipolaris sorokiniana (Sacc.) Shoemaker H-299. The description is as above. In kind it is cell-based. The note with it: B. sorokiniana mycelial growth; for MIC: Bipolaris sorokiniana.
Data set [4] relates to S. aureus ATCC 29213 biofilm formation. The data set can be described thus: Biofilm inhibition assay (crystal violet). In kind it is cell-based, Staphylococcus aureus. The note with it: for effect on biofilm formation: sub-MIC concentrations.
The subject of data set [5] is MRSA SA 3202. Nature of the data set: Synergy effect with clinically used drugs (fractional inhibitory concentration). It counts as cell-based, Staphylococcus aureus. The note with it: for Separate MIC: MRSA SA 3202, each drug alone in the checkerboard plate; for Combined effect with vancomycin: additivity 0.5 < ΣFIC < 1.
The subject of a further data set is Staphylococcus aureus. Nature of the data set: Pre-test subcultivation of aliquots on agar (minimal bactericidal concentration). In kind it is cell-based.
Data set [6] deals with Staphylococcus aureus ATCC 29213. Nature of the data set: In vitro antibacterial evaluation, broth dilution micro-method (MIC). It counts as cell-based. The note with it: read-out: MIC SA. Background: Dilution methods test growth across graded concentrations, often in twofold steps.
For data set [7], the system named is Nicotiana tabacum var. Samsun. Nature of the data set: In vivo toxicity against plant cells (leaf injection). The note with it: water solutions 1× MIC and 4× MIC injected into leaves, checked visually for 5 weeks.
Method: Nicotiana tabacum var. Samsun was used for this test [88].
Nicotiana tabacum var. Samsun was used for this test. […] As the negative control, solutions of DMSO in the same concentration were used. The positive control was 5% DMSO, which should be toxic to the plant cells. The aqueous solutions were injected into the plant leaves by a syringe (needle 27G × ¾”) to fill area approx. 1 cm^2 [88]. The test was made in triplicates in three different plants. The plants were kept in a greenhouse on direct sunlight. The effect of the compounds was visually checked every day for 5 weeks.
Data set [8] has as its system photosynthetic electron transport (PET) in spinach chloroplasts. Nature of the data set: Inhibition of photosynthetic electron transport (PET) in spinach chloroplasts (Hill reaction, DCPIP). In kind it is biochemical, Spinacia oleracea L. The procedure:
Chloroplasts were prepared from spinach (Spinacia oleracea L.) according to Masarovicova and Kralova. The inhibition of photosynthetic electron transport (PET) in spinach chloroplasts was determined spectrophotometrically (Genesys 6, Thermo Scientific), using an artificial electron acceptor 2,6-dichlorophenol-indophenol (DCIPP) according to Kralova et al., and the rate of photosynthetic electron transport was monitored as a photoreduction of DCPIP. The measurements were carried out in phosphate buffer (0.02 mol/L, pH 7.2) containing sucrose (0.4 mol/L), MgCl2 (0.005 mol/L), and NaCl (0.015 mol/L). The chlorophyll content was 30 mg/L in these experiments, and the samples were irradiated (~100 W/m^2 with 10 cm distance) with a halogen lamp (250 W) using a 4 cm water filter to prevent warming of the samples (suspension temperature 22 °C). The studied compounds were dissolved in DMSO due to their limited water solubility.

In data set [9] the test system is MRSA SA 3202. Nature of the data set: In vitro antibacterial evaluation, broth dilution micro-method (MIC). It counts as cell-based, Staphylococcus aureus. The note with it: 24 h, read-out: MIC MRSA SA 3202.
Data set [10] relates to MRSA SA 630. Described as above. It counts as cell-based, Staphylococcus aureus. The note with it: 24 h, read-out: MIC MRSA SA 630.
For data set [11], the system named is MRSA SA 630. Nature of the data set: Synergy effect with clinically used drugs (fractional inhibitory concentration). In kind it is cell-based, Staphylococcus aureus. The note with it: for Separate MIC: MRSA SA 630, each drug alone in the checkerboard plate; for Combined effect with vancomycin: additivity 0.5 < ΣFIC < 1.
The next data set has as its system THP-1 cells. Nature of the data set: In vitro antiproliferative assay (WST-1). In kind it is cell-based, human. The note with it: WST-1, 24 h, highest concentration 30 μM, read-out: Tox IC50 (antiproliferative). The procedure: The activity of this enzyme directly correlates with the number of metabolically active cells in the culture. […] Human monocytic leukemia THP-1 cells were used for in vitro antiproliferative assay. […] Cells were passaged at approximately one-week intervals. […] The maximum concentration of DMSO in the assays never exceeded 0.1%. Subsequently, the cells were incubated at 37 °C with 5% CO2 for 24 h. […] The median inhibition concentration values, IC50, were deduced through the production of a dose-response curve. All data were evaluated using GraphPad Prism 5.00 software (GraphPad Software, San Diego, CA, USA).

The next data set has as its system S. aureus ATCC 29213. Nature of the data set: Dynamics of antibacterial effect (time-kill curves). The note with it: 4× MIC, after 8 h; bactericidal = −3log decrease of CFU/mL. In kind it is cell-based, Staphylococcus aureus.
For data set [12], the system named is MRSA 63718. Nature of the data set: In vitro antibacterial evaluation, broth dilution micro-method (MIC). In kind it is cell-based, Staphylococcus aureus. The following applies: 24 h, read-out: MIC MRSA 63718.
Data set [13] in a line: Lipophilicity determination by RP-HPLC (capacity factor k / log k). The following applies: C18, isocratic MeOH 72%/H2O 28%.
The subject of data set [14] is MRSA 63718. Nature of the data set: Synergy effect with clinically used drugs (fractional inhibitory concentration). The note with it: MRSA 63718, each drug alone in the checkerboard plate. It counts as cell-based, Staphylococcus aureus.
[15] abbreviates: Staphylococcus aureus, ATCC29213, 24 h.
Where [16] appears, read: MRSA SA 3202, synergy ΣFIC ≤ 0.5.

Turning to `O=C(Nc1cccc(C(F)(F)F)c1)c1ccc2cccc(O)c2n1` [8-hydroxy-N-(3-trifluoromethylphenyl)quinoline-2-carbox-amide], the “decrease of the viability of M. tuberculosis H37Ra to” value in the data set with M. tuberculosis H37Ra is 18.8%.

As a reminder, the inhibition is the drop in the measured response relative to a control, in per cent. By MIC is commonly meant the lowest concentration found to suppress growth. Take `CCCCNC(=O)n1c(NC(=O)OC)nc2ccccc21` [BNM, benomyl, reference compound]: in [1] (5 μg/mL), the inhibition at 5 µg/mL amounted to 100%. Further, the inhibition at 10 µg/mL in data set [1] (10 μg/mL) stood at 100%. Moreover, the MIC was 1.94 µM and 0.5 µg/mL in data set [2] (Fusarium avenaceum); 17.2 µM and 5 µg/mL in data set [3].

As for `O=C(O)c1cn(C2CC2)c2cc(N3CCNCC3)c(F)cc2c1=O` [CPX, ciprofloxacin], the “effect on biofilm formation” value in data set [4] is given as “induction of biofilm formation”.

As a reminder, the IC50 is the concentration that inhibits the measured activity by half. Turning to `O=C(/C=C/c1ccccc1)Nc1cccc(C(F)(F)F)c1` [Compound 6, (2E)-3-Phenyl-N-[3-(trifluoromethyl)phenyl]prop-2-enamide], the “Separate MIC” value is 16 μg/mL and 8/8 μg/mL and 8 μg/mL in the data set on MRSA SA 3202 [5]; 8 µg/mL in the data set on MRSA SA 630 [11]. The “Combined effect with vancomycin” value in the data set on MRSA SA 3202 [5] (MRSA SA 3202) and with MRSA SA 630 [11] (MRSA SA 630) was “additivity” each time. Besides, the “lowest concentration which inhibited ≥80% of biofilm formation” value in data set [4] (S. aureus ATCC 29213, 48 h) is reported as 8 µg/mL. Also, the minimal bactericidal concentrations with Staphylococcus aureus is listed as ≤ 4 × MIC. The minimum inhibitory concentration (MIC) in data set [2] was 54.93 µM (≈ 16 µg/mL); in data set [2] (Fusarium avenaceum), 54.9 µM and 16 µg/mL; in data set [6] (S. aureus ATCC 29213, 24 h), 27.47 µM (≈ 8 µg/mL); in [6] (setting [15]), 27.5 µM and 8 µg/mL; in the data set on MRSA SA 3202 [9], 27.47 µM (≈ 8 µg/mL); with MRSA SA 3202 [9] (Staphylococcus aureus, MRSA), 27.5 µM and 8 µg/mL. Besides, the MIC in the data set on MRSA SA 630 [10] was 27.47 µM (≈ 8 µg/mL); in the data set on MRSA SA 630 [10] (Staphylococcus aureus, MRSA), 27.5 µM and 8 µg/mL; in data set [3], 54.9 µM and 16 µg/mL; in the data set on MRSA 63718 [12], 27.47 µM (≈ 8 µg/mL); in the data set with MRSA 63718 [12] (Staphylococcus aureus, MRSA), 27.5 µM and 8 µg/mL. Besides, in data set [7], the “in vivo toxicity against plant cells” value was “nontoxic effect; also recorded: no visible influence on the plant tissue”. Also, the concentration for half-maximal inhibition (IC50) in [8] is 189 µM; in the data set with THP-1 cells (Homo sapiens, THP-1, 24 h), 22 µM; in the data set on THP-1 cells, 22.7 ± 1.73 µM. The “bactericidal effect in time-kill curve assay” value with S. aureus ATCC 29213 is on record as “very close to the bactericidal level”. Also, the “MIC BS” value in data set [3] lay within 49.98 to 66.32 µM. Also, the log k in data set [13] was determined as 0.4859.

With `O=C(/C=C/c1ccccc1)Nc1cc(C(F)(F)F)cc(C(F)(F)F)c1` [Compound 13, (2E)-N-[3,5-bis(Trifluoromethyl)phenyl]-3-phenylprop-2-enamide], the “Separate MIC” value was 32 µg/mL in the data set with MRSA SA 3202 [5]; 8 µg/mL and 4 µg/mL in the data set on MRSA SA 630 [11]. Moreover, the “Combined effect with vancomycin” value in the data set on MRSA SA 3202 [5] (MRSA SA 3202) and in the data set with MRSA SA 630 [11] (MRSA SA 630) was “additivity” each time. Moreover, the “Combined effect with ciprofloxacin” value with MRSA SA 3202 [5] (setting [16]) is recorded as “synergistic”; with MRSA SA 630 [11] (MRSA SA 630, synergy ΣFIC ≤ 0.5), “synergistic”. Moreover, the “Combined effect with tetracycline” value in the data set on MRSA SA 3202 [5] (setting [16]) is reported as “synergistic”. The minimal bactericidal concentrations with Staphylococcus aureus is recorded as ≤ 4 × MIC. Besides, the MIC in data set [2] (Fusarium avenaceum) was 713 µM and 256 µg/mL; in [6] (S. aureus ATCC 29213, 24 h) it was 22.27 µM (≈ 8 µg/mL); in data set [6] (setting [15]), 22.3 µM and 8 µg/mL; with MRSA SA 3202 [9], 22.27 µM (≈ 8 µg/mL); in the data set on MRSA SA 3202 [9] (Staphylococcus aureus, MRSA), 22.3 µM and 8 µg/mL; with MRSA SA 630 [10], 22.27 µM (≈ 8 µg/mL). In addition, the minimum inhibitory concentration (MIC) in the data set with MRSA SA 630 [10] (Staphylococcus aureus, MRSA) was 22.3 µM and 8 µg/mL; in [3], 356 µM and 128 µg/mL; in the data set with MRSA 63718 [12] it was 22.27 µM (≈ 8 µg/mL); with MRSA 63718 [12] (Staphylococcus aureus, MRSA), 22.3 µM and 8 µg/mL. Also, the IC50 turned out to be 111 µM in data set [8]; 22 µM with THP-1 cells (Homo sapiens, THP-1, 24 h); 22.6 ± 1.88 µM in the data set with THP-1 cells. The “bactericidal effect in time-kill curve assay” value in the data set with S. aureus ATCC 29213 is “bactericidal”. Further, in [13], the log k was 0.981 and 0.9814.

As for `CN(C)[C@@H]1C(O)=C(C(N)=O)C(=O)[C@@]2(O)C(O)=C3C(=O)c4c(O)cccc4[C@@](C)(O)[C@H]3C[C@@H]12` [TET, tetracycline, reference compound], the “Separate MIC” value came to 64 µg/mL in the data set on MRSA SA 3202 [5] and 128 µg/mL in the data set on MRSA 63718 [14].

As for `CN[C@H](CC(C)C)C(=O)N[C@H]1C(=O)N[C@@H](CC(N)=O)C(=O)N[C@H]2C(=O)N[C@H]3C(=O)N[C@H](C(=O)N[C@H](C(=O)O)c4cc(O)cc(O)c4-c4cc3ccc4O)[C@H](O)c3ccc(c(Cl)c3)Oc3cc2cc(c3O[C@@H]2O[C@H](CO)[C@@H](O)[C@H](O)[C@H]2O[C@H]2C[C@](C)(N)[C@H](O)[C@H](C)O2)Oc2ccc(cc2Cl)[C@H]1O` [VAN, vancomycin, reference compound], the “Separate MIC” value in the data set on MRSA SA 3202 [5] stood at 1 µg/mL; with MRSA 63718 [14], 2 µg/mL; in the data set with MRSA SA 630 [11] it was 1 µg/mL. Also, the “effect on biofilm formation” value in [4] was “induction of biofilm formation”.
